Data on one compound can be found in patent US20060194860A1, “Pharmaceutical compositions containing aryl or heteroaryl azolylcarbinol compounds” (GRUENENTHAL GMBH, priority 2003, published 2006).

Molecules are shown by their SMILES.

This experiment deals with T1, 5-HT reuptake (Homo sapiens, UniProt P31645).
T1 construct: in a system with neurological tissue under physiological conditions; from tissue
The experiment can be described thus: Functional measurement of the 5-HT uptake / inhibition of serotonin uptake (tritium-marked 5-HT, neurological tissue). The format is biochemical. The note with it: uptake of tritium-marked 5-HT in neurological tissue under physiological conditions; three independent tests. The text has this: Functional Measurement of the 5-HT-Uptake or the Inhibition of Serotonin Uptake
The uptake of tritium-marked 5-HT (serotonin) as a function of the concentration of the added substance 5-{α-[2-(methylamino)ethoxy]benzyl}-1-methyl-1H-pyrazole in a system with neurological tissue under physiological conditions.

T1 sequence (P31645 whole entry): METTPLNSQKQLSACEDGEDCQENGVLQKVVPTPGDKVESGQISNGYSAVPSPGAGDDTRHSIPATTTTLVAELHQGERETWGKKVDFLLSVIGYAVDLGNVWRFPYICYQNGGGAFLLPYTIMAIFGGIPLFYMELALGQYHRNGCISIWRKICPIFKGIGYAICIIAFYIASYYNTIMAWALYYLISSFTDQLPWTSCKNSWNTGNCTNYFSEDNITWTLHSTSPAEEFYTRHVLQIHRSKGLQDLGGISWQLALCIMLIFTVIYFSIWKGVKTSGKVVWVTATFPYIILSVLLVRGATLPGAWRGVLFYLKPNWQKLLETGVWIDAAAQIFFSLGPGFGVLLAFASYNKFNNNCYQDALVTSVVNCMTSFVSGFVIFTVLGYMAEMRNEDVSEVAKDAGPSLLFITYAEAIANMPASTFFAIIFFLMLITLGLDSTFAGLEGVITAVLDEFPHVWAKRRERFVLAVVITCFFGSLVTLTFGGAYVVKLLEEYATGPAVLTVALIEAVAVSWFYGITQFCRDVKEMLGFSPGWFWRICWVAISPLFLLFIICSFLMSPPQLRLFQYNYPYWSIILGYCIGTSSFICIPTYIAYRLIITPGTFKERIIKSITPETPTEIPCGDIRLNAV

Compound `CNCCOC(c1ccccc1)c1ccnn1C` (stereo not drawn) [5-{α-[2-(methylamino)ethoxy]benzyl}-1-methyl-1H-pyrazole] yielded a Ki of 530 ± 100 nM.

The term Ki denotes the equilibrium dissociation constant of an inhibitor or competing ligand from its target.
